# From PubChem BioAssay AID1918939 (Molecular Pharmacology Branch, DTP, NCI, 2023)
# System: 653999-131-R-J2-PDC complex spheroid viability
# Test: Anticancer human tumor 653999-131-R-J2-PDC patient-derived lung adenocarcinoma cell line growth inhibition
# Conditions: for IC50: curve of first compound; for viability, T/C: stronger effect = lower value
# Summary of the method: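 Drug combinations with the LSD1 inhibitor iadademstat tested on tumor cells co-cultured as spheroids with endothelial cells and mesenchymal stem cells. Concentrations descended in half-log increments from clinical Cmax or 10 microM.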
# [1] = second compound 0.1 µM, first compound 0.00949 µM
# [2] = second compound 0.1 µM, first compound 0.03 µM
# [3] = second compound 0.1 µM, first compound 0.0949 µM
# [4] = second compound 0.1 µM, first compound 0.3 µM
# [5] = second compound 0.1 µM, first compound 0.949 µM
# [6] = second compound 0.1 µM, first compound 3 µM
# [7] = second compound 0.316 µM, first compound 0.00949 µM
# [8] = second compound 0.316 µM, first compound 0.03 µM
# [9] = second compound 0.316 µM, first compound 0.0949 µM
# [10] = second compound 0.316 µM, first compound 0.3 µM
# [11] = second compound 0.316 µM, first compound 0.949 µM
# [12] = second compound 0.316 µM, first compound 3 µM
# [13] = second compound 1 µM, first compound 0.00949 µM
# [14] = second compound 1 µM, first compound 0.03 µM
# [15] = second compound 1 µM, first compound 0.0949 µM
# [16] = second compound 1 µM, first compound 0.3 µM
# [17] = second compound 1 µM, first compound 0.949 µM
# [18] = second compound 1 µM, first compound 3 µM
# [19] = second compound 3.16 µM, first compound 0.00949 µM
# [20] = second compound 3.16 µM, first compound 0.03 µM
# [21] = second compound 3.16 µM, first compound 0.0949 µM
# [22] = second compound 3.16 µM, first compound 0.3 µM
# [23] = second compound 3.16 µM, first compound 0.949 µM
# [24] = second compound 3.16 µM, first compound 3 µM
# [25] = second compound 10 µM, first compound 0.00949 µM
# [26] = second compound 10 µM, first compound 0.03 µM
# [27] = second compound 10 µM, first compound 0.0949 µM
# [28] = second compound 10 µM, first compound 0.3 µM
# [29] = second compound 10 µM, first compound 0.949 µM
# [30] = second compound 10 µM, first compound 3 µM
# 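Also: spheroids exposed to agents for seven days before readout.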
compound,measurement,setting,value
Nc1ccccc1NC(=O)c1ccc(CNC(=O)OCc2cccnc2)cc1 + NC1CCC(NC2CC2c2ccccc2)CC1,IC50,second compound 0.1 µM,349 nM
same,IC50,second compound 0.316 µM,228 nM
same,IC50,second compound 1 µM,394 nM
same,IC50,second compound 3.16 µM,294 nM
same,IC50,second compound 10 µM,301 nM
same,"viability, T/C",[1],68.4%
same,"viability, T/C",[2],68.1%
same,"viability, T/C",[3],57.1%
same,"viability, T/C",[4],54.3%
same,"viability, T/C",[5],35.8%
same,"viability, T/C",[6],9.78%
same,"viability, T/C",[7],70.5%
same,"viability, T/C",[8],61.3%
same,"viability, T/C",[9],56.1%
same,"viability, T/C",[10],49%
same,"viability, T/C",[11],33.2%
same,"viability, T/C",[12],8.88%
same,"viability, T/C",[13],75.3%
same,"viability, T/C",[14],69.7%
same,"viability, T/C",[15],65.1%
same,"viability, T/C",[16],52.4%
same,"viability, T/C",[17],38.5%
same,"viability, T/C",[18],8.55%
same,"viability, T/C",[19],69.6%
same,"viability, T/C",[20],77.9%
same,"viability, T/C",[21],57.1%
same,"viability, T/C",[22],46.9%
same,"viability, T/C",[23],36.3%
same,"viability, T/C",[24],8.4%
same,"viability, T/C",[25],74.6%
same,"viability, T/C",[26],62%
same,"viability, T/C",[27],54.6%
same,"viability, T/C",[28],57.4%
same,"viability, T/C",[29],30.8%
same,"viability, T/C",[30],5.06%
O=C(C=Cc1cccc(S(=O)(=O)Nc2ccccc2)c1)NO + NC1CCC(NC2CC2c2ccccc2)CC1,IC50,second compound 0.1 µM,435 nM
same,IC50,second compound 0.316 µM,538 nM
same,IC50,second compound 1 µM,513 nM
same,IC50,second compound 3.16 µM,501 nM
same,IC50,second compound 10 µM,449 nM
same,"viability, T/C",[1],81.9%
same,"viability, T/C",[2],97.9%
same,"viability, T/C",[3],108%
same,"viability, T/C",[4],56.1%
same,"viability, T/C",[5],28.6%
same,"viability, T/C",[6],3.54%
same,"viability, T/C",[7],89.3%
same,"viability, T/C",[8],82.6%
same,"viability, T/C",[9],91.4%
same,"viability, T/C",[10],70.3%
same,"viability, T/C",[11],29.3%
same,"viability, T/C",[12],3.12%
same,"viability, T/C",[13],96.4%
same,"viability, T/C",[14],100%
same,"viability, T/C",[15],88.3%
same,"viability, T/C",[16],71.6%
same,"viability, T/C",[17],26.2%
same,"viability, T/C",[18],2.35%
same,"viability, T/C",[19],98.4%
same,"viability, T/C",[20],83.1%
same,"viability, T/C",[21],92.4%
same,"viability, T/C",[22],61.9%
same,"viability, T/C",[23],32.3%
same,"viability, T/C",[24],2.77%
same,"viability, T/C",[25],95.4%
same,"viability, T/C",[26],96%
same,"viability, T/C",[27],101%
same,"viability, T/C",[28],60.3%
same,"viability, T/C",[29],25.8%
same,"viability, T/C",[30],3.12%
O=C(c1cc(Cc2n[nH]c(=O)c3ccccc23)ccc1F)N1CCN(C(=O)C2CC2)CC1 + NC1CCC(NC2CC2c2ccccc2)CC1,IC50,second compound 0.1 µM,> 10000 nM
same,IC50,second compound 0.316 µM,> 10000 nM
same,IC50,second compound 1 µM,> 10000 nM
same,IC50,second compound 3.16 µM,> 10000 nM
same,IC50,second compound 10 µM,> 10000 nM
same,"viability, T/C","second compound 0.1 µM, first compound 0.0316 µM",86.2%
same,"viability, T/C","second compound 0.1 µM, first compound 0.1 µM",94.2%
same,"viability, T/C","second compound 0.1 µM, first compound 0.316 µM",80.7%
same,"viability, T/C","second compound 0.1 µM, first compound 1 µM",87.7%
same,"viability, T/C","second compound 0.1 µM, first compound 3.16 µM",81.6%
same,"viability, T/C","second compound 0.1 µM, first compound 10 µM",57.6%
same,"viability, T/C","second compound 0.316 µM, first compound 0.0316 µM",99.5%
same,"viability, T/C","second compound 0.316 µM, first compound 0.1 µM",93.6%
same,"viability, T/C","second compound 0.316 µM, first compound 0.316 µM",98.3%
same,"viability, T/C","second compound 0.316 µM, first compound 1 µM",84.6%
same,"viability, T/C","second compound 0.316 µM, first compound 3.16 µM",70.1%
same,"viability, T/C","second compound 0.316 µM, first compound 10 µM",53%
same,"viability, T/C","second compound 1 µM, first compound 0.0316 µM",103%
same,"viability, T/C","second compound 1 µM, first compound 0.1 µM",92.5%
same,"viability, T/C","second compound 1 µM, first compound 0.316 µM",109%
same,"viability, T/C","second compound 1 µM, first compound 1 µM",81%
same,"viability, T/C","second compound 1 µM, first compound 3.16 µM",71.5%
same,"viability, T/C","second compound 1 µM, first compound 10 µM",56.9%
same,"viability, T/C","second compound 3.16 µM, first compound 0.0316 µM",91.3%
same,"viability, T/C","second compound 3.16 µM, first compound 0.1 µM",104%
same,"viability, T/C","second compound 3.16 µM, first compound 0.316 µM",84.8%
same,"viability, T/C","second compound 3.16 µM, first compound 1 µM",84.7%
same,"viability, T/C","second compound 3.16 µM, first compound 3.16 µM",85.1%
same,"viability, T/C","second compound 3.16 µM, first compound 10 µM",58.5%
same,"viability, T/C","second compound 10 µM, first compound 0.0316 µM",113%
same,"viability, T/C","second compound 10 µM, first compound 0.1 µM",93.9%
same,"viability, T/C","second compound 10 µM, first compound 0.316 µM",102%
same,"viability, T/C","second compound 10 µM, first compound 1 µM",92.2%
same,"viability, T/C","second compound 10 µM, first compound 3.16 µM",76.4%
same,"viability, T/C","second compound 10 µM, first compound 10 µM",60%
